Literature values in patent publication US7271167B2, “Compounds, compositions, and methods” (Cytokinetics, Inc., priority 2002, dated 2007).

System: A549 cells
Conditions: data provided by National Cancer Institute, Developmental Therapeutic Program

SMILES	GI50 [nM]
O=c1[nH]cc(F)c(=O)[nH]1 [5-fluorouracil]	1000
COc1cccc2c1C(=O)c1c(O)c3c(c(O)c1C2=O)C[C@@](O)(C(=O)CO)C[C@@H]3O[C@H]1C[C@H](N)[C@H](O)[C@H](C)O1 [doxorubicin]	63
NC(=O)NO [hydroxyurea]	500000
CC(=O)O[C@H]1C(=O)[C@@]2(C)[C@H]([C@H](OC(=O)c3ccccc3)[C@]3(O)C[C@H](OC(=O)[C@H](O)[C@@H](NC(=O)c4ccccc4)c4ccccc4)C(C)=C1C3(C)C)[C@]1(OC(C)=O)CO[C@@H]1C[C@@H]2O [paclitaxel]	4
